According to patent publication US7897587B2, “Topical dermatological formulations and use thereof” (Nycomed US Inc., priority 2004, dated 2011):

Assay: Solubility of fluticasone propionate in propylene glycol, propylene carbonate and mixtures thereof
Assay type: physicochemical
Details: 25° C.
Protocol: In the drawing FIGURE this solubility data obtained at 25° C. is plotted as the dark line and the idealized (theoretical) solubility is plotted as the light line. In “ideal” solutions, the effect of each component is additive in a linear fashion. If solvent A has a property with a value of 50 and solvent B a value of 100 for the same property, an equal blend of A and B would be expected to give a value of 75 for that property. […] The lightly colored line represents “ideal” linear behavior. Since propylene glycol can solubilize about 10 times more drug than propylene carbonate, the “ideal” line slopes down strongly as we move from pure propylene glycol to pure propylene carbonate. […] Two important observations can be made.

- Fluticasone propionate solubility (% propylene glycol/% propylene carbonate 0/100): 1.17 % w/w
- Fluticasone propionate solubility (% propylene glycol/% propylene carbonate 12.5/87.5): 1.72 % w/w
- Fluticasone propionate solubility (% propylene glycol/% propylene carbonate 25/75): 1.56 % w/w
- Fluticasone propionate solubility (% propylene glycol/% propylene carbonate 50/50): 1.09 % w/w
- Fluticasone propionate solubility (% propylene glycol/% propylene carbonate 75/25): 0.48 % w/w
- Fluticasone propionate solubility (% propylene glycol/% propylene carbonate 100/0): 0.08 % w/w
- Drug solubilized by propylene glycol relative to propylene carbonate (pure solvents): about 10 times
SMILES: CCC(=O)O[C@]1(C(=O)SCF)[C@H](C)C[C@H]2[C@@H]3C[C@H](F)C4=CC(=O)C=C[C@]4(C)[C@@]3(F)[C@@H](O)C[C@@]21C [Fluticasone propionate, 6α,9α-difluoro-17α(1-oxopropoxy)-11β-hydroxy-16α-methyl-3-oxo-androsta-1,4-diene-17β-carbothioic acid S-fluoromethyl ester]
- Measured solubility compared with ideal (linear, theoretical) solubility (all propylene glycol/propylene carbonate mixtures): the measured solubility exceeds the ideal solubility
- Measured solubility in blends compared with solubility in single solvent (blends containing about 99 to 45% propylene carbonate): the measured solubility exceeds the solubility in propylene glycol
